According to ChEMBL document CHEMBL1201862, “PubChem BioAssay data set” (2004):
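1) Cells in 96-well plates. 2) Compound, 48 h, 5 concentrations. 3) Linear interpolation between surrounding doses. 4) Unreached endpoint = highest concentration. The concentration for 50% growth inhibition is given as GI50.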 Activity calls are given as the source filed them. No stated cut-off is given here; in the data, active = GI50 up to about 1.1 µM and inactive = higher.

Key:
Assay in all cases: NCI anticancer screen, dose series, 48 h
786-0 = tested on: 786-0
A498 = tested on: A498
A549 = tested on: A549
ACHN = tested on: ACHN
BT-549 = tested on: BT-549
CCRF-CEM = tested on: CCRF-CEM
COLO 205 = tested on: COLO 205
DU-145 = tested on: DU-145
EKVX = tested on: EKVX
HCC 2998 = tested on: HCC 2998
HCT-116 = tested on: HCT-116
HCT-15 = tested on: HCT-15
HL-60 = tested on: HL-60
HOP-62 = tested on: HOP-62
HOP-92 = tested on: HOP-92
HT-29 = tested on: HT-29
Hs-578T = tested on: Hs-578T
IGROV-1 = tested on: IGROV-1
K562 = tested on: K562
KM12 = tested on: KM12
LOX IMVI = tested on: LOX IMVI
M14 = tested on: M14
MCF7 = tested on: MCF7
MDA-MB-231 = tested on: MDA-MB-231
MDA-MB-435 = tested on: MDA-MB-435
MDA-N = tested on: MDA-N
MOLT-4 = tested on: MOLT-4
Malme-3M = tested on: Malme-3M
NCI-H226 = tested on: NCI-H226
NCI-H23 = tested on: NCI-H23
NCI-H460 = tested on: NCI-H460
NCI-H522 = tested on: NCI-H522
NCI/ADR-RES = tested on: NCI/ADR-RES
OVCAR-3 = tested on: OVCAR-3
OVCAR-4 = tested on: OVCAR-4
OVCAR-5 = tested on: OVCAR-5
OVCAR-8 = tested on: OVCAR-8
PC-3 = tested on: PC-3
RXF 393 = tested on: RXF 393
SF-268 = tested on: SF-268
SF-295 = tested on: SF-295
SF-539 = tested on: SF-539
SK-MEL-28 = tested on: SK-MEL-28
SK-MEL-2 = tested on: SK-MEL-2
SK-MEL-5 = tested on: SK-MEL-5
SK-OV-3 = tested on: SK-OV-3
SN12C = tested on: SN12C
SNB-19 = tested on: SNB-19
SNB-75 = tested on: SNB-75
SR = tested on: SR
SW-620 = tested on: SW-620
T47D = tested on: T47D
TK-10 = tested on: TK-10
U-251 = tested on: U-251
UACC-257 = tested on: UACC-257
UACC-62 = tested on: UACC-62
UO-31 = tested on: UO-31
RPMI-8226 = tested on: RPMI-8226
CAKI-1 = tested on: CAKI-1

Measured: GI50

COC(=O)C(Cc1ccccc1)NP(=O)(O)OCC1OC(n2cc(Br)c(=O)[nH]c2=O)CC1O (stereo not drawn)
> 100 µM: HCT-15
inactive: 786-0 > 100 µM | A498 > 100 µM | A549 > 100 µM | ACHN > 100 µM | BT-549 > 100 µM | CCRF-CEM > 100 µM | COLO 205 > 100 µM | DU-145 > 100 µM | EKVX > 100 µM | HCC 2998 > 100 µM | HCT-116 > 100 µM | HL-60 > 100 µM | HOP-62 > 100 µM | HOP-92 > 100 µM | HT-29 > 100 µM | Hs-578T > 100 µM | IGROV-1 > 100 µM | K562 > 100 µM | KM12 > 100 µM | LOX IMVI > 100 µM | M14 > 100 µM | MCF7 > 100 µM | MDA-MB-231 > 100 µM | MDA-MB-435 > 100 µM | MDA-N > 100 µM | MOLT-4 > 100 µM | Malme-3M > 100 µM | NCI-H226 > 100 µM | NCI-H23 > 100 µM | NCI-H460 > 100 µM | NCI-H522 > 100 µM | NCI/ADR-RES > 100 µM | OVCAR-3 > 100 µM | OVCAR-4 > 100 µM | OVCAR-5 > 100 µM | OVCAR-8 > 100 µM | PC-3 > 100 µM | RXF 393 > 100 µM | SF-268 > 100 µM | SF-295 > 100 µM | SF-539 > 100 µM | SK-MEL-28 > 100 µM | SK-MEL-2 > 100 µM | SK-MEL-5 > 100 µM | SK-OV-3 > 100 µM | SN12C > 100 µM | SNB-19 > 100 µM | SNB-75 > 100 µM | SR > 100 µM | SW-620 > 100 µM | T47D > 100 µM | TK-10 > 100 µM | U-251 > 100 µM | UACC-257 > 100 µM | UACC-62 > 100 µM | UO-31 > 100 µM

Cc1nc(-c2cc3cc(Cl)ccc3oc2=O)cc2c1c(=O)oc1ccc(Cl)cc12
> 100 µM: HCT-15
inactive: 786-0 > 100 µM | A498 > 100 µM | A549 > 100 µM | ACHN > 100 µM | BT-549 > 100 µM | CCRF-CEM > 100 µM | COLO 205 > 100 µM | DU-145 > 100 µM | EKVX > 100 µM | HCC 2998 > 100 µM | HCT-116 > 100 µM | HL-60 > 100 µM | HOP-62 > 100 µM | HOP-92 > 100 µM | HT-29 > 100 µM | Hs-578T 72.3 µM | IGROV-1 > 100 µM | K562 > 100 µM | KM12 > 100 µM | LOX IMVI > 100 µM | M14 > 100 µM | MCF7 > 100 µM | MDA-MB-231 > 100 µM | MDA-MB-435 > 100 µM | MDA-N > 100 µM | MOLT-4 > 100 µM | NCI-H226 > 100 µM | NCI-H23 > 100 µM | NCI-H460 > 100 µM | NCI-H522 70.3 µM | NCI/ADR-RES > 100 µM | OVCAR-3 > 100 µM | OVCAR-8 > 100 µM | PC-3 > 100 µM | RPMI-8226 > 100 µM | RXF 393 > 100 µM | SF-268 > 100 µM | SF-295 > 100 µM | SK-MEL-28 > 100 µM | SK-MEL-2 > 100 µM | SK-MEL-5 > 100 µM | SK-OV-3 > 100 µM | SN12C > 100 µM | SNB-19 > 100 µM | SR > 100 µM | SW-620 > 100 µM | T47D > 100 µM | TK-10 > 100 µM | U-251 > 100 µM | UACC-257 > 100 µM | UACC-62 > 100 µM | UO-31 > 100 µM

COc1ccc(-n2c(C)nc3ccc(NC4OC(CO)C(O)C(O)C4O)cc3c2=O)cc1 (stereo not drawn)
> 100 µM: HCT-15
inactive: 786-0 > 100 µM | A498 > 100 µM | ACHN > 100 µM | BT-549 > 100 µM | CAKI-1 > 100 µM | COLO 205 > 100 µM | DU-145 > 100 µM | EKVX > 100 µM | HCC 2998 > 100 µM | HCT-116 > 100 µM | HL-60 > 100 µM | HOP-62 > 100 µM | HT-29 > 100 µM | Hs-578T > 100 µM | IGROV-1 > 100 µM | K562 > 100 µM | KM12 > 100 µM | LOX IMVI > 100 µM | MCF7 > 100 µM | MDA-MB-231 > 100 µM | MDA-MB-435 > 100 µM | MDA-N > 100 µM | MOLT-4 > 100 µM | Malme-3M > 100 µM | NCI-H226 > 100 µM | NCI-H23 > 100 µM | NCI-H460 > 100 µM | NCI-H522 > 100 µM | NCI/ADR-RES > 100 µM | OVCAR-3 > 100 µM | OVCAR-4 > 100 µM | OVCAR-5 > 100 µM | OVCAR-8 > 100 µM | PC-3 > 100 µM | RPMI-8226 > 100 µM | RXF 393 > 100 µM | SF-268 > 100 µM | SF-295 > 100 µM | SK-MEL-28 > 100 µM | SK-MEL-2 97.5 µM | SK-MEL-5 > 100 µM | SN12C > 100 µM | SNB-19 > 100 µM | SNB-75 > 100 µM | SR > 100 µM | SW-620 > 100 µM | T47D > 100 µM | TK-10 > 100 µM | U-251 > 100 µM | UACC-257 > 100 µM | UACC-62 > 100 µM | UO-31 > 100 µM
